Converted amounts (≈) assume the structure as drawn.
Columns and labels:
[1] = chemical stability towards pH / alkali; assay type: physicochemical; conditions: pH 5-9
Streptococcus faecalis [2] = experiment: conventional tube dilution test (Table I); assay type: cell-based; conditions: Enterococcus faecalis, 48 h, antibiotic Number 3 medium, two days at 37° C., read-out: Minimum Inhibitory Concentration
Protocol: (§1) The in vitro antimicrobial activities of Compounds A, B and C, 5-bromo-2-ethyl-5-nitro-1,3-dioxane (Compound D), 5-bromo-5-nitro-2-n-propyl-1,3-dioxane (Compound E), and 5-bromo-2-isopropyl-5-nitro-1,3-dioxane (Compound F) were determined concurrently against Pseudomonas aeruginosa, Staphylococcus aureus, Escherichia coli, and Streptococcus faecalis in a conventional tube dilution test. The medium used was antibiotic Number 3 [CFR 436.102(3)] and the concentration of organisms was 10^4 organisms per ml of medium, with each tube being inoculated with 0.1 ml of inoculum. The figures shown in Table I are the lowest concentrations in mcg of active compound/ml of medium where no growth occurred in the medium after two days' incubation at 37° C.

Escherichia coli [3] = experiment: conventional tube dilution test (Table I); assay type: cell-based; conditions: 48 h, antibiotic Number 3 medium, two days at 37° C., read-out: Minimum Inhibitory Concentration
Protocol: as §1

Staphylococcus aureus [4] = experiment: conventional tube dilution test (Table I); assay type: cell-based; conditions: 48 h, antibiotic Number 3 medium, two days at 37° C., read-out: Minimum Inhibitory Concentration
Protocol: as §1

Pseudomonas aeruginosa [5] = experiment: conventional tube dilution test (Table I); assay type: cell-based; conditions: 48 h, antibiotic Number 3 medium, two days at 37° C., read-out: Minimum Inhibitory Concentration
Protocol: as §1

Aspergillus niger [6] = experiment: agar plate system (Table II); assay type: cell-based; conditions: antibiotic medium 22, 72 hours at 30° C., read-out: Minimum Inhibitory Concentration
Protocol: (§2) The antimicrobial activities of Compounds A, B, C, D, E and F were also determined in an agar plate system. The compounds were added to melted and cooled (50° C.) agar in twofold concentration increments from 50 mcg per ml of agar to 1.56 mcg per ml of agar. Antibiotic medium 1 [CFR 436.102(1)] was used for testing of Pseudomonas aeruginosa, Staphylococcus aureus, Escherichia coli, and Streptococcus faecalis, but antibiotic medium 22 [CFR 436.102(22)] was used for testing of Candida albicans and Aspergillus niger. Organism suspensions containing 10^6 organisms per ml were used as stock suspensions. Sterile cotton swabs were dipped in the suspensions and then streaked across the solidified agar. The figures shown in Table II were the lowest concentrations at which no growth occurred after 72 hours at 30° C. These values were interpreted as the minimum inhibitory concentration (MIC).

Streptococcus faecalis [7] = experiment: agar plate system (Table II); assay type: cell-based; conditions: Enterococcus faecalis, antibiotic medium 1, 72 hours at 30° C., read-out: Minimum Inhibitory Concentration
Protocol: as §2

Escherichia coli [8] = experiment: agar plate system (Table II); assay type: cell-based; conditions: antibiotic medium 1, 72 hours at 30° C., read-out: Minimum Inhibitory Concentration
Protocol: as §2

Staphylococcus aureus [9] = experiment: agar plate system (Table II); assay type: cell-based; conditions: antibiotic medium 1, 72 hours at 30° C., read-out: Minimum Inhibitory Concentration
Protocol: as §2

Candida albicans [10] = experiment: agar plate system (Table II); assay type: cell-based; conditions: antibiotic medium 22, 72 hours at 30° C., read-out: Minimum Inhibitory Concentration
Protocol: as §2

Pseudomonas aeruginosa [11] = experiment: agar plate system (Table II); assay type: cell-based; conditions: antibiotic medium 1, 72 hours at 30° C., read-out: Minimum Inhibitory Concentration
Protocol: as §2

Aspergillus niger [12] = experiment: in vitro agar plate determination (Table VII); assay type: cell-based; conditions: agar plates at 10, 25 and 50 mcg. per ml., 24 hours, read-out: Minimum Inhibitory Concentration
Protocol: (§3) The antimicrobial activities of […] (Compound G) were determined concurrently with 5-bromo-2-methyl-5-nitro-1,3-dioxane (Compound C) and 5-bromo-5-nitro-1,3-dioxane (Compound B) against the same six organisms shown in Table II. […] The tests were in vitro determinations utilizing agar plates containing the active compound at 10, 25 and 50 mcg. per ml. of agar. The organisms, at concentrations of 10^6 organisms per milliliter, were streaked on the solidified agar. The plates were incubated for 24 hours and the presence or absence of growth noted. The minimum inhibitory concentration (MIC) was determined as the lowest active compound concentration in the agar where no growth occurred.

Streptococcus faecalis [13] = experiment: in vitro agar plate determination (Table VII); assay type: cell-based; conditions: Enterococcus faecalis; agar plates at 10, 25 and 50 mcg. per ml., 24 hours; read-out: Minimum Inhibitory Concentration
Protocol: as §3

Escherichia coli [14] = experiment: in vitro agar plate determination (Table VII); assay type: cell-based; conditions: agar plates at 10, 25 and 50 mcg. per ml., 24 hours, read-out: Minimum Inhibitory Concentration
Protocol: as §3

Staphylococcus aureus [15] = experiment: in vitro agar plate determination (Table VII); assay type: cell-based; conditions: agar plates at 10, 25 and 50 mcg. per ml., 24 hours, read-out: Minimum Inhibitory Concentration
Protocol: as §3

Candida albicans [16] = experiment: in vitro agar plate determination (Table VII); assay type: cell-based; conditions: agar plates at 10, 25 and 50 mcg. per ml., 24 hours, read-out: Minimum Inhibitory Concentration
Protocol: as §3

Pseudomonas aeruginosa [17] = experiment: in vitro agar plate determination (Table VII); assay type: cell-based; conditions: agar plates at 10, 25 and 50 mcg. per ml., 24 hours, read-out: Minimum Inhibitory Concentration
Protocol: as §3

chemical stability at pH [1] | MIC (Streptococcus faecalis [2]) [µg/mL] | MIC (Escherichia coli [3]) [µg/mL] | MIC (Staphylococcus aureus [4]) [µg/mL] | MIC (Pseudomonas aeruginosa [5]) [µg/mL] | MIC (Aspergillus niger [6]) [µg/mL] | MIC (Streptococcus faecalis [7]) [µg/mL] | MIC (Escherichia coli [8]) [µg/mL] | MIC (Staphylococcus aureus [9]) [µg/mL] | MIC (Candida albicans [10]) [µg/mL] | MIC (Pseudomonas aeruginosa [11]) [µg/mL] | MIC (Aspergillus niger [12]) [µg/mL] | MIC (Streptococcus faecalis [13]) [µg/mL] | MIC (Escherichia coli [14]) [µg/mL] | MIC (Staphylococcus aureus [15]) [µg/mL] | MIC (Candida albicans [16]) [µg/mL] | MIC (Pseudomonas aeruginosa [17]) [µg/mL] | SMILES
chemically stable at pH's from 5-9 | 25 (≈ 104 µM) | 25 (≈ 104 µM) | 25 (≈ 104 µM) | 50 (≈ 208 µM) | 12.5 (≈ 52.1 µM) | 12.5 (≈ 52.1 µM) | 12.5 (≈ 52.1 µM) | 12.5 (≈ 52.1 µM) | 6.25 (≈ 26 µM) | 25 (≈ 104 µM) |  |  |  |  |  |  | CCC1OCC(Br)([N+](=O)[O-])CO1 (stereo not shown) [Compound D, 5-bromo-2-ethyl-5-nitro-1,3-dioxane]
 | 25 (≈ 98.4 µM) | 25 (≈ 98.4 µM) | 50 (≈ 197 µM) | 50 (≈ 197 µM) | 6.25 (≈ 24.6 µM) | 12.5 (≈ 49.2 µM) | 12.5 (≈ 49.2 µM) | 12.5 (≈ 49.2 µM) | 3.1 (≈ 12.2 µM) | 25 (≈ 98.4 µM) |  |  |  |  |  |  | CCCC1OCC(Br)([N+](=O)[O-])CO1 (stereo not shown) [Compound E, 5-bromo-5-nitro-2-n-propyl-1,3-dioxane]
 | 25 (≈ 98.4 µM) | 25 (≈ 98.4 µM) | 25 (≈ 98.4 µM) | 50 (≈ 197 µM) | 12.5 (≈ 49.2 µM) | 25 (≈ 98.4 µM) | 12.5 (≈ 49.2 µM) | 12.5 (≈ 49.2 µM) | 6.25 (≈ 24.6 µM) | 25 (≈ 98.4 µM) |  |  |  |  |  |  | CC(C)C1OCC(Br)([N+](=O)[O-])CO1 (stereo not shown) [Compound F, 5-bromo-2-isopropyl-5-nitro-1,3-dioxane]
 |  |  |  |  |  |  |  |  |  |  | 50 (≈ 208 µM) | 25 (≈ 104 µM) | 25 (≈ 104 µM) | 25 (≈ 104 µM) | 25 (≈ 104 µM) | 50 (≈ 208 µM) | CC1(C)OCC(Br)([N+](=O)[O-])CO1 [Compound G, 5-bromo-2,2-dimethyl-5-nitro-1,3-dioxane]

Source: US4025533A, “5-Bromo-5-nitro-2-alkylsubstituted-1,3-dioxane” (Eli Lilly and Company, priority 1976, dated 1977)
